3 substances from patent US7951842B2, “Use of Cupuassu butter based amphoteric amidoamines as amphoteric surfactants” (Cognis Brasil Ltda., priority 2004, dated 2011) can be followed below.

The subject of one series is animals. As to conditions: in vivo. An excerpt: The toxicological profile of the Cupuassuamido propyl betaine was compared to Cocamido propyl betaine.

Procedure for Red Blood Cell: The Red Blood Cell Test (RBC) was carried out with the combination of Sodium Lauryl Ether Sulfate (SLES) and Cupuassuamido Propyl Betaine (CupAPB) or Sodium Lauryl Ether Sulfate (SLES) and Cocamido Propyl Betaine (CAPB) in different concentrations.

On to Cocamido propyl betaine, for which, in the series on animals, the “Cumulative Dermic Irritation” value was “Moderately irritating”, the “Ocular Irritability” value was “Moderately irritating” and the “Primary Dermic Irritation” value is on record as “Minimum irritating”.
Regarding Cupuassuamido propyl betaine, in the series on animals, the “Cumulative Dermic Irritation” value is listed as “Minimum irritating”, the “Ocular Irritability” value is reported as “Not irritating” and the “Primary Dermic Irritation” value is given as “Not irritating”.
Take Sodium Laureth Sulfate [SLES (7.10%)]: in the series on Red Blood Cell, the H/O is recorded as 17.1, the “hemolysis (H)” value was determined as 275.0 and the “oxidation (O)” value came out at 16.10.
